Experimental data published in patent US20050049207A1 (priority 2003, published 2005).

What was measured:
[1] = test system: prostate, lung and colorectal cancer; settings: selenium supplements, humans; cited from earlier work
Saccharomyces cerevisiae = Saccharomyces cerevisiae (brewer's/baker's yeast); cited from earlier work
Candida albicans = settings: cited from earlier work
leukemia = settings: human, in vivo; cited from earlier work
PSA levels = settings: men with prostate cancer; cited from earlier work
prostate cancer = assay: Case 4: person with prostate cancer on Phase I diet and antifungals; type: in vivo, man; settings: one patient; Phase I diet 2 months, nystatin 2 months, then UGN, Caprylic acid, GSE; PSA closer to 4.0 at cancer diagnosis
Text: 4. A person was diagnosed as having prostrate cancer. UTSW study for BPH ×5-6 yrs. Biopsy prior and post program. Normal PSA! At post-study diagnosis, cancer was found: October 2001. They moved to OKC and started watching Doug's show.
Past history includes heavy use of antibiotics, recurrently for allergies, sinusitis.
Went to MD Anderson—found cancer in different place of the prostate, but Cancer was confirmed nonetheless. Gleason stage 7.
Started on Phase I for 2 months (had severe die-off ×4 days—including fever), nystatin thereafter ×2 months. Cont'd diet for 4 months and stays on a variant of the diet. On UGN, Caprylic acid, GSE now ×3 months. Saw John Hogan, D.O. (OKC). Past 2 yrs: PSA now is 1.1. Was closer to 4.0 at the time of cancer diagnosis.
F/U Ultrasound: cannot find any tumors. Whole body scans have been negative.

[2] = test system: primary human urothelial cells; settings: cited from earlier work
[3] = in vivo; cited from earlier work
[4] = test system: p53 tumor suppressor gene; settings: cited from earlier work

## [Se] [Selenium]
[1]
  lower risk of developing cancer: 37%
  lower risk of dying from the cancer: 50%

## CC/C(=C(\c1ccccc1)c1ccc(OCCN(C)C)cc1)c1ccccc1 [Tamoxifen]
Saccharomyces cerevisiae
  antifungal action: marked antifungal action
Candida albicans
  antifungal action: marked antifungal action

## C[C@@H]1[C@H](O)[C@@H](C)/C=C/C=C/C=C/C=C/C=C/C=C/C=C/[C@H](O[C@@H]2O[C@H](C)[C@@H](O)[C@H](N)[C@@H]2O)C[C@@H]2O[C@](O)(C[C@@H](O)C[C@@H](O)[C@H](O)CC[C@@H](O)C[C@@H](O)CC(=O)O[C@H]1C)C[C@H](O)[C@H]2C(=O)O [amphotericin B]
leukemia
  effect on (secondary) fungal infections: cured their (secondary) fungal infections
  effect on cancer (leukemia): successfully treated their cancer

## OC(Cn1cncn1)(Cn1cncn1)c1ccc(F)cc1F [fluconazole]
leukemia
  effect on (secondary) fungal infections: cured their (secondary) fungal infections
  effect on cancer (leukemia): successfully treated their cancer

## CC(=O)N1CCN(c2ccc(OCC3COC(Cn4ccnc4)(c4ccc(Cl)cc4Cl)O3)cc2)CC1 (stereo not shown) [ketoconazole]
PSA levels
  effect on PSA levels: lowered PSA levels

## C[C@@H]1[C@H](O)[C@@H](C)/C=C/C=C/CC/C=C/C=C/C=C/C=C/C(O[C@H]2O[C@H](C)[C@@H](O)[C@H](N)[C@@H]2O)CC2O[C@](O)(CC(O)C(O)CCC(O)CC(O)CC(O)CC(=O)O[C@H]1C)CC(O)C2C(=O)O (stereo partly shown) [nystatin]
Prostate cancer
  PSA: 1.1

## C[C@@H]1Cc2c(Cl)cc(C(=O)N[C@@H](Cc3ccccc3)C(=O)O)c(O)c2C(=O)O1 [ochratoxin A]
[2]
  unscheduled DNA synthesis: Induction of unscheduled DNA synthesis

## aflatoxin B1
[3]
  liver carcinoma after exposure: develop liver carcinoma
[4]
  mutation of p53 tumor suppressor gene: induces the transversion of G→T in codon 249
